Measurements from patent US6352982B1, “4,1-benzoxazepines, their analogues, and their use as somatostatin agonists” (Takeda Chemical Industries, Ltd., priority 1997, dated 2002).
Where a name gives a salt, the structure may show the parent alone.

Experiments:
[1] = biological target: T1, human somatostatin receptor SSTR4 (Homo sapiens, UniProt P31391); experiment: Inhibition of forskolin-stimulated accumulation of cAMP in receptor expression CHO cells; type: cell-based; details: forskolin 10 μM, 37° C. for 30 minutes, read-out: Inhibitory effect on forskolin-stimulated accumulation of cAMP (ED50 value) SSTR4
T1 construct: expressed in transfected cells; host or cells: CHO (dhfr-) cells, strain SSTR4-1-2
T1 sequence (P31391 whole entry): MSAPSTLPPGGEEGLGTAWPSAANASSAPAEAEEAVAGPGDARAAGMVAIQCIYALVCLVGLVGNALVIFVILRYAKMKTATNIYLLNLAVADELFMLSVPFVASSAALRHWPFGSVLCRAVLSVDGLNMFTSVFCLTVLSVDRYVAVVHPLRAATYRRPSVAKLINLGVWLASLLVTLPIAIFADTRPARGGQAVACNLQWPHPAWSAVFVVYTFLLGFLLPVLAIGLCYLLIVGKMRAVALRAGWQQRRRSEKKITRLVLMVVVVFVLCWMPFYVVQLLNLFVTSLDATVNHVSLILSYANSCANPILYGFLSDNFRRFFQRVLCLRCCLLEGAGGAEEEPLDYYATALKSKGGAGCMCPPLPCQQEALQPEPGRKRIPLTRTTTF
Experimental: (§1) For measurement of the accumulated intracellular adenosine 3′,5′-monophosphate (cAMP), the human somatostatin receptor expression cell strains, SSTR2-HS5-9, SSTR-3-15-19, SSTR4-1-2 and SSTR5-32-4, mentioned in Reference Examples 2-3, 3-3,4-3 and 5-3, respectively, were proliferated in 24-well plate until they were confluent. Said cells were washed twice with 1 ml of Medium A [Dulbecco's Modified Eagle Medium (DMEM), 20 mM 2-(4-(2-hydroxyethyl)-1-piperazinyl]ethanesulfonic acid (HEPES) (pH 7.5), 0.2% bovine serum albumin and 0.2 mM 3-isobutyl-1-methylxanthine (IBMX)]. The medium A was placed in wells each in quantity of 400 μl and incubated at 37° C. for an hour. A solution of the compounds of Example 5 and Example 102 (solution obtained by diluting with Medium A to the 10-fold concentration of the final concentration) and a forskolin solution (final concentration 10 μM) were placed in wells each in quantities of 50 μl and 50 μl, respectively, and incubated at 37° C. for 30 minutes. The cells were washed twice with 1 ml of Medium A. Medium A (500 μl) and 100 μl of a 20% aqueous perchloric acid solution were placed in each well and left standing for 20 minutes at 4° C. to lyse the cells. The lyzate was placed in an Eppendorf's tube and centrifuged (15.000 rpm, for 10 minutes). The supernatant was placed in another Eppendorf's tube in quantity of 500 μl and neutralized with 60 mM of a HEPES aqueous solution containing 1.5 M of potassium chloride. The content of cAMP contained in this extract was determined by the Amersham kit (cAMP EIA system).

[2] = biological target: T2, human somatostatin receptor SSTR2 (Homo sapiens, UniProt P30874); experiment: as above; type: cell-based; details: forskolin 10 μM, 37° C. for 30 minutes, read-out: Inhibitory effect on forskolin-stimulated accumulation of cAMP (ED50 value) SSTR2
T2 construct: expressed in transfected cells; host or cells: CHO (dhfr-) cells, strain SSTR2-HS5-9
T2 sequence (P30874 whole entry): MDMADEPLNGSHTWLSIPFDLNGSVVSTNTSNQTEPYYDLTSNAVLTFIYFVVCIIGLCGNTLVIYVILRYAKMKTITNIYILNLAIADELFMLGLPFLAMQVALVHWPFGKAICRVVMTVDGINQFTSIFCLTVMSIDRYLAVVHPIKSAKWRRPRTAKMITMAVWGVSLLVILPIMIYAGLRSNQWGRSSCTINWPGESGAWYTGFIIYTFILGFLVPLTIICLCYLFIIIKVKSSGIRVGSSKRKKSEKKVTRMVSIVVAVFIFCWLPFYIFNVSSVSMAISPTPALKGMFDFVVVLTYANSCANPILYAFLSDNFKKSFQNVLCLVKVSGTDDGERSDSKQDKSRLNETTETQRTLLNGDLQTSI
Experimental: as §1

[3] = biological target: T3, human somatostatin receptor SSTR3 (Homo sapiens, UniProt P32745); experiment: as above; type: cell-based; details: forskolin 10 μM, 37° C. for 30 minutes, read-out: Inhibitory effect on forskolin-stimulated accumulation of cAMP (ED50 value) SSTR3
T3 construct: expressed in transfected cells; host or cells: CHO (dhfr-) cells, strain SSTR3-15-19
T3 sequence (P32745 whole entry): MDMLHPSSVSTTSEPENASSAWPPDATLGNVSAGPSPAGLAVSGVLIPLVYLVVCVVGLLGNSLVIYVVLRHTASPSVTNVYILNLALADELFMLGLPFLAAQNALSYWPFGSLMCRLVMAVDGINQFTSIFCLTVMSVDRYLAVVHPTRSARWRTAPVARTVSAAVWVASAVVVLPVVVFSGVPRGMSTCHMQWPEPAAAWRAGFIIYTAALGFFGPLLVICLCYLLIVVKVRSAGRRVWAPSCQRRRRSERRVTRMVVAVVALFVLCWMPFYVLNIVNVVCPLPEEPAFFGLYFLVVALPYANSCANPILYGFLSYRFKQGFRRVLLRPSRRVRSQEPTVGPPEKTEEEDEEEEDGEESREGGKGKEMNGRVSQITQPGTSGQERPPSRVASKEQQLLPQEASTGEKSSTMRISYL
Experimental: as §1

[4] = biological target: T4, human somatostatin receptor SSTR5 (Homo sapiens, UniProt P35346); experiment: as above; type: cell-based; details: forskolin 10 μM, 37° C. for 30 minutes, read-out: Inhibitory effect on forskolin-stimulated accumulation of cAMP (ED50 value) SSTR5
T4 construct: expressed in transfected cells; host or cells: CHO (dhfr-) cells, strain SSTR5-3-2-4 (also printed SSTR5-32-4)
T4 sequence (P35346 whole entry): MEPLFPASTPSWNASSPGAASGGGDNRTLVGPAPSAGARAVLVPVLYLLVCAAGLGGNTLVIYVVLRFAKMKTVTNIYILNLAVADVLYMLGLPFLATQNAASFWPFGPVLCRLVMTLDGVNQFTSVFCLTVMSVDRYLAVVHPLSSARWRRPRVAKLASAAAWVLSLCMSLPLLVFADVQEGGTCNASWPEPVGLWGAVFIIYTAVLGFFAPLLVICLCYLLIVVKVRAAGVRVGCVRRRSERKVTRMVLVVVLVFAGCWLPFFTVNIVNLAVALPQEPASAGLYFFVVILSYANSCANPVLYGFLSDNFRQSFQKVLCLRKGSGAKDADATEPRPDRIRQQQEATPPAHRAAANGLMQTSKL
Experimental: as §1

[5] = biological target: T1, human somatostatin receptor SSTR4; experiment: Binding inhibition of 125I-somatostatin, CHO cell membrane fraction; details: 125I-somatostatin binding, 25° C. for 60 minutes, read-out: Activities for human somatostatin receptor (IC50 value) SSTR4
Experimental: (§2) A human somatostatin receptor expression CHO cell strain, SSTR1-8-3, SSTR2-HS5-9, SSTR3-15-19, SSTR4-1-2 or SSTR5-32-4 (10^9), was suspended in a phosphate buffered saline containing 5mM of EDTA (PBS-EDTA). The suspension was centrifuged. To the cell pellet was added 10 ml of a homogenation buffer solution for cells (10 mM NaHCO3, 5 mM EDTA, pH=7.5). The mixture was homogenized by a Politron homogenizer and centrifuged at 400×g for 15 minutes. The supernatant obtained was farther centrifuged at 100,000×g for an hour to obtain a precipitate of the membrane fraction. The precipitate was suspended in 2 ml of a buffer solution for assay ([…], 0.1% of BSA (bovine serum albumin) and […], 1 μ/ml of pepstatin, 20 μg/ml of leupeptin, 10 μg/ml of phosphoramide, pH=7.5). The suspension was centrifuged at […] for an hour. The membrane fraction recovered as precipitate was suspended again in 20 ml of buffer solution for assay. The suspension was placed in tubes and stored at −80° C. The suspension was thawed when used, and used at every use.
(§3) The membrane fraction prepared in Example 1 was diluted with a buffer solution for assay to adjust the concentration to 3 μg/ml. The diluate was placed in tubes each in quantity of 173 μl. To this were simultaneously added 2 μl of a solution of a compound in DMSO and 25μl of a 200pM radioisotope-labeled somatostatin (^125I-somatostatin: Amersham) solution. For measurement of the maximum binding, a reaction mixture added with 2 μl of DMSO and 25μl of a 200pM ^125I-somatostatin solution was prepared. For measurement of non-specific binding, a reaction mixture added with 2 μl of a 100 μM somatostatin solution diluted in DMSO and 25 μl of a 200pM ^125I-somatostatin solution was prepared at the same time. The mixtures were allowed to react at 25° C. for 60 minutes. Then, the reaction mixture was filtered by aspiration using a GF/B glass fiber filter paper (Whatman) treated with polyethylenimine. After filtration, the radioactivity of 125I-somatostatin remaining on the filter paper was measured by a γ-counter.
(§4) The binding rate (%) of each compound was calculated by the formula: […]
(§5) (where PBM: Percent maximum Binding, B: radioactivity when a compound was added, Bo: maximum binding radioactivity, NSB: non-specific binding radioactivity). The binding rates were calculated by changing the concentrations of the compound to obtain the 50% inhibiting concentration of the compound (IC50 value) by the Hil l plots.
(§6) The activities (IC50 value, μM) of the compounds for each human somatostatin receptor obtained by the above method are shown in the following Table 5.

[6] = biological target: T2, human somatostatin receptor SSTR2; experiment: as above; details: 125I-somatostatin binding, 25° C. for 60 minutes, read-out: Activities for human somatostatin receptor (IC50 value) SSTR2
Experimental: as §2, §3, §4, §5, §6

[7] = biological target: T3, human somatostatin receptor SSTR3; experiment: as above; details: 125I-somatostatin binding, 25° C. for 60 minutes, read-out: Activities for human somatostatin receptor (IC50 value) SSTR3
Experimental: as §2, §3, §4, §5, §6

[8] = biological target: T4, human somatostatin receptor SSTR5; experiment: as above; details: 125I-somatostatin binding, 25° C. for 60 minutes, read-out: Activities for human somatostatin receptor (IC50 value) SSTR5
Experimental: as §2, §3, §4, §5, §6

| EC50 [1] [nM] | EC50 [2] [nM] | EC50 [3] [nM] | EC50 [4] [nM] | IC50 [5] [nM] | IC50 [6] [nM] | IC50 [7] [nM] | IC50 [8] [nM] | Structure (SMILES) |
| --- | --- | --- | --- | --- | --- | --- | --- | --- |
| 100 | 200 | 0.3 | 0.3 | 300 | 60 | 80 | 0.1 | NCc1cccc(C2OC(CC(=O)NCc3ccccc3F)C(=O)N(Cc3ccc(O)cc3)c3ccc(Cl)cc32)c1 (stereo not drawn) [Example 102, 3,5-Trans-N-(2-fluorobenzyl)-5-(3-aminomethylphenyl)-7-chloro-1-(4-hydroxybenzyl)-2-oxo-1,2,3,5-tetrahydro-4,1-benzoxazepine-3-acetamide•monohydrochloride] |
| 200 | 300 | 2 | 0.7 | 300 | 100 | 3 | 0.7 | NCc1cccc(C2OC(CC(=O)NCc3ccccc3F)C(=O)N(Cc3ccc(-c4ccccc4)cc3)c3ccc(Cl)cc32)c1 (stereo not drawn) [Example 5, 3,5-Trans-N-(2-fluorobenzyl)-5-(3-aminomethylphenyl)-1-(4-biphenylmethyl)-7-chloro-2-oxo-1,2,3,5-tetrahydro-4,1-benzoxazepine-3-acetamide•monohydrochloride] |
